Assay [1] concerns K562 chronic myelogenous leukemia cells. The experiment in a line: MTT assay, in vitro inhibitory activity on cells. The format is cell-based. An excerpt: (§1) In this example, MTT assay was used to detect in vitro inhibitory activity of the compounds prepared according to the above examples on the cells. […] AP24534 was purchased from Shanghai Xinkuo Chemical Technology Co., Ltd., China.
(§2) Dimethyl sulfoxide (DMSO) is capable of dissolving formazan in cells, and absorbance value can be measured at a wavelength of 490 nm by an enzyme-linked immunometric meter, which reflects the number of living cells. Within a certain range of the number of cells, the amount of MTT crystals formed is proportional to the number of living cells.
(§3) 1. […] 2. Culturing in a 37° C., 5% CO2 incubator and keeping the cells adhering to the wall of the well. 3. […] 4. Carefully removing the supernatant, gently washing with PBS and discarding the supernatant again. 5. […] 6. Terminating culturing and carefully discarding the medium in each well. 7. Adding 150 μl dimethyl sulfoxide into each well, shaking for 10 minutes at low speed in a shaker, to make crystals fully dissolved. 8. Measuring the absorbance of each well at 490 nm by an enzyme-linked immunometric meter. 9. Calculating IC50 values.
(In general: Tetrazolium assays rely on reduction of a dye to a coloured formazan, in cell work by metabolically active cells.)

For assay [2], the system named is MDA-MB-231 human breast cancer cells. Kind of assay: MTT assay, in vitro inhibitory activity on cells. It counts as cell-based. The conditions noted are these: typically 48 hours.
Excerpt: as §1, §2, §3

Assay [3] relates to Ovcar-3 human ovarian cancer cells. The experiment in a line: MTT assay, in vitro inhibitory activity on cells. The conditions noted are these: typically 48 hours. It counts as cell-based.
Excerpt: as §1, §2, §3

The subject of assay [4] is Saos-2 human osteosarcoma cells. Kind of assay: MTT assay, in vitro inhibitory activity on cells. The format is cell-based. As to conditions: typically 48 hours.
Excerpt: as §1, §2, §3

The target of another assay is T1, Human ABL1 (T315I) (Homo sapiens, UniProt P00519, T315I).
T1 construct: purchased Millipore Corporation, USA #14-522
The experiment in a line: ABL1 (T315I) kinase activity, [γ-33P] ATP / Abltide radiometric assay. It counts as biochemical. The conditions noted are these: ATP 1.0 μM, 120 minutes, room temperature. How it is done: Kinase activity was determined according to the manufacturer's instructions. Peptide substrate is Abltide ([…]), purchased from Millipore Corporation, USA. Ion exchange chromatography paper P81 was purchased from Whatman Company, UK. [γ-33P] ATP was purchased from Perkin Elmer Company.
[γ-33P] ATP was added at room temperature, with final concentration of 1.0 μM, and the reaction was performed for 120 minutes. 20 μl aliquots were transferred onto the ion exchange chromatography paper P81. The paper was thoroughly washed with a 0.75% phosphoric acid solution three times, and then washed with acetone once. Finally, γ-33P radioactivity was measured.

[5] abbreviates: Homo sapiens, K562, 48 h, typically 48 hours.

The structures appear in SMILES notation.

On to `Cc1cn(-c2cc(NC(=O)c3ccc(F)c(C#Cc4cccc5ncncc45)c3)cc(C(F)(F)F)c2)cn1` [Example 24, 3-((quinazolin-5-yl)ethynyl)-4-fluoro-N-[3-(4-methyl-1H-imidazol-1-yl)-5-trifluoromethylphenyl]benzamide], for which the IC50 – broadly, the concentration that gives 50% inhibition – in assay [1] (setting [5]) was determined as 11400 nM. As for `CNc1ncc2ccc(C#Cc3cc(C(=O)Nc4ccc(CN5CCN(C)CC5)c(C(F)(F)F)c4)ccc3C)cc2n1` [Example 6, 3-((2-methylaminoquinazolin-7-yl)ethynyl)-4-methyl-N-[4-((4-methylpiperazin-1-yl)methyl)-3-trifluoromethylphenyl]benzamide], the IC50 was 730 nM in assay [1] (setting [5]), 7890 nM in assay [2], 8260 nM in assay [3] and 2100 nM in assay [4].

Turning to `Cc1ccc(C(=O)Nc2ccc(CN3CCN(C)CC3)c(C(F)(F)F)c2)cc1C#Cc1cccc2[nH]nc(N)c12` [Example 1, 3-(3-amino-1H-indazol-4-yl)ethynyl-4-methyl-N-[4-(4-methylpiperazin-1-yl)methyl-3-trifluoromethylphenyl]benzamide], the IC50 in assay [1] (setting [5]) was found to be 1870 nM; on Human ABL1 (T315I), 6.48 nM. In assay [1] (setting [5]), `Cc1ccc(C(=O)Nc2ccc(CN3CCN(C)CC3)c(C(F)(F)F)c2)cc1C#Cc1ccc2ncncc2c1` [Example 2, 3-((quinazolin-6-yl)ethynyl)-4-methyl-N-[4-((4-methylpiperazin-1-yl)methyl)-3-trifluoromethylphenyl]benzamide] showed an IC50 of 3720 nM. In the case of `Cc1ccc(C(=O)Nc2ccc(CN3CCN(C)CC3)c(C(F)(F)F)c2)cc1C#Cc1cccc2nc(N)ncc12` [Example 27, 3-((2-aminoquinazolin-5-yl)ethynyl)-4-methyl-N-[(4-(4-methylpiperazin-1-yl)methyl)-3-trifluoromethylphenyl]benzamide], the IC50 in assay [1] (setting [5]) stood at 9050 nM. This IC50 lies about 2.4-fold higher than the previous one. The same measure, in the same setting: as for `CC(=O)Nc1ncc2c(F)cc(C#Cc3cc(C(=O)Nc4ccc(CN5CCN(C)CC5)c(C(F)(F)F)c4)ccc3C)cc2n1` [Example 10, 3-((5-fluoro-2-acetylaminoquinazolin-7-yl)ethynyl)-4-methyl-N-[4-((4-methylpiperazin-1-yl)methyl)-3-trifluoromethylphenyl]benzamide], the figure is 6880 nM. On to `Cc1ccc(C(=O)Nc2ccc(CN3CC[C@@H](N(C)C)C3)c(C(F)(F)F)c2)cc1C#Cc1cccc2ncncc12` [Example 18, 3-((quinazolin-5-yl)ethynyl)-4-methyl-(R)—N-[4-((3-(dimethylamino)pyrrolidin-1-yl)methyl)-3-trifluoromethylphenyl]benzamide], for which the IC50 was 470 nM in assay [1] (typically 48 hours) and 21.7 nM against Human ABL1 (T315I). Consider `Cc1ccc(C(=O)Nc2ccc(CN3CCN(C)CC3)c(C(F)(F)F)c2)cc1C#Cc1ccc2nccnc2c1` [Example 23], for which the IC50 was 2840 nM in assay [1] (setting [5]) and 6 nM against Human ABL1 (T315I). Consider `Cc1ccc(NC(=O)Nc2ccc(CN3CCN(C)CC3)c(C(F)(F)F)c2)cc1C#Cc1cccc2[nH]nc(N)c12` [Example 32, N-[3-((3-amino-1H-indazol-4-yl)ethynyl)-4-methyl]phenyl-N′-[4-((4-methylpiperazin-1-yl)methyl)-3-trifluoromethylphenyl]urea], for which the IC50 was 660 nM in assay [1] (setting [5]), 2110 nM in assay [2], 6970 nM in assay [3] and 2130 nM in assay [4].

Regarding `CNc1ncc2c(F)cc(C#Cc3cc(C(=O)Nc4ccc(CN5CCN(C)CC5)c(C(F)(F)F)c4)ccc3C)cc2n1` [Example 7, 3-((5-fluoro-2-methylaminoquinazolin-7-yl)ethynyl)-4-methyl-N-[4-((4-methylpiperazin-1-yl)methyl)-3-trifluoromethylphenyl]benzamide], the IC50 in assay [1] (setting [5]) turned out to be 670 nM; in assay [2], 4140 nM; in assay [3] it was 2350 nM; in assay [4] it was 4700 nM.

For `Cc1cn(-c2cc(NC(=O)c3ccc(C)c(C#Cc4cccc5ncncc45)c3)cc(C(F)(F)F)c2)cn1` [Example 20, 3-((quinazolin-5-yl)ethynyl)-4-methyl-N-[3-(4-methyl-1H-imidazol-1-yl)-5-trifluoromethylphenyl]benzamide], the IC50 came to 1140 nM in assay [1] (setting [5]) and 43.5 nM against Human ABL1 (T315I).

Consider `Cc1ccc(C(=O)Nc2ccc(CN3CCC(N(C)C)CC3)c(C(F)(F)F)c2)cc1C#Cc1ccc2nccnc2c1` [Example 21], for which the values for the IC50 (in assay [1] (setting [5]); on Human ABL1 (T315I)) were 3310 nM and 24.3 nM, respectively. Compound `CNc1ncc2ccc(C#Cc3cc(C(=O)Nc4ccc(CN5CCN(CCO)CC5)c(C(F)(F)F)c4)ccc3C)cc2n1` [Example 15, 3-((2-methylaminoquinazolin-7-yl)ethynyl)-4-methyl-N-[4-((4-(2-hydroxyethyl)piperazin-1-yl)methyl)-3-trifluoromethylphenyl]benzamide] gave an IC50 in assay [1] (setting [5]) of 2900 nM. On to `CNC(=O)c1cc(Oc2ccc(NC(=O)c3ccc(C)c(C#Cc4cccc5ncncc45)c3)cc2)ccn1` [Example 29, 3-((quinazolin-5-yl)ethynyl)-4-methyl-N-[4-(2-(N-methylcarboxamido)pyridinyl-4-oxy)phenyl]benzamide], for which, in assay [1] (setting [5]), the IC50 was 24100 nM. Against the preceding compound, the IC50 is about 8.3-fold higher. The same measure, in the same setting: the same measure for `CNC(=O)c1cc(Oc2ccc(NC(=O)c3ccc(C)c(C#Cc4ccc5c(NC)ncnc5c4)c3)cc2)ccn1` [Example 30]: 89100 nM; for `CNc1ncnc2cc(C#Cc3cc(C(=O)Nc4ccc(CN5CCN(CCO)CC5)c(C(F)(F)F)c4)ccc3C)ccc12` [Example 14, 3-((4-methylaminoquinazolin-7-yl)ethynyl)-4-methyl-N-[4-((4-(2-hydroxyethyl)piperazin-1-yl)methyl)-3-trifluoromethylphenyl]benzamide]: 5680 nM; for `Cc1ccc(C(=O)Nc2ccc(CN3CCS(=O)(=O)CC3)c(C(F)(F)F)c2)cc1C#Cc1cccc2ncncc12` [Example 17]: 8720 nM.

Turning to `Cc1ccc(C(=O)Nc2ccc(CN3CCN(C)CC3)c(C(F)(F)F)c2)cc1C#Cc1cnc2cccnn12` [AP24534, reference compound], the IC50 worked out at 4800 nM in assay [1] (Homo sapiens, K562, typically 48 hours); 420 nM in assay [2]; 1210 nM in assay [3]; 380 nM in assay [4]. For the compound `CC(=O)Nc1ncc2ccc(C#Cc3cc(C(=O)Nc4ccc(CN5CCN(C)CC5)c(C(F)(F)F)c4)ccc3C)cc2n1` [Example 8, 3-((2-acetylaminoquinazolin-7-yl)ethynyl)-4-methyl-N-[4-((4-methylpiperazin-1-yl)methyl)-3-trifluoromethylphenyl]benzamide], in assay [1] (setting [5]), the IC50 turned out to be 1600 nM. This lies in the single-digit micromolar range. In assay [1] (typically 48 hours), `Cc1ccc(C(=O)Nc2ccc(CN3CCC(N(C)C)C3)c(C(F)(F)F)c2)cc1C#Cc1cccc2ncncc12` (stereo in doubt) [Example 19, 3-((quinazolin-5-yl)ethynyl)-4-methyl-(S)—N-[4-((3-(dimethylamino)pyrrolidin-1-yl)methyl)-3-trifluoromethylphenyl]benzamide] had an IC50 of 8100 nM. Turning to `Cc1ccc(C(=O)Nc2ccc(CN3CCN(CCO)CC3)c(C(F)(F)F)c2)cc1C#Cc1cccc2ncncc12` [Example 16, 3-((quinazolin-5-yl)ethynyl)-4-methyl-N-[4-((4-(2-hydroxyethyl)piperazin-1-yl)methyl)-3-trifluoromethylphenyl]benzamide], the IC50 in assay [1] (setting [5]) came to 7030 nM; against Human ABL1 (T315I), 12.4 nM. Compound `Cc1ccc(NC(=O)Nc2ccc(CN3CCN(C)CC3)c(C(F)(F)F)c2)cc1C#Cc1ccc2cncnc2c1` [Example 31] had an IC50 in assay [1] (setting [5]) of 1090 nM. The compound `CNc1ncc2c(C#Cc3cc(C(=O)Nc4ccc(CN5CCN(C)CC5)c(C(F)(F)F)c4)ccc3C)cccc2n1` [Example 28, 3-((2-methylaminoquinazolin-5-yl)ethynyl)-4-methyl-N-[(4-((4-methyl)piperazin-1-yl)methyl)-3-trifluoromethylphenyl]benzamide] displayed an IC50 in assay [1] (setting [5]) of 15500 nM. Compared with the last compound, the IC50 is about 14-fold higher. In the case of `CNc1ncnc2cc(C#Cc3cc(C(=O)Nc4ccc(CN5CCN(C)CC5)c(C(F)(F)F)c4)ccc3C)ccc12` [Example 12, 3-((4-methylaminoquinazolin-7-yl)ethynyl)-4-methyl-N-[4-((4-methylpiperazin-1-yl)methyl)-3-trifluoromethylphenyl]benzamide], the IC50 in assay [1] (setting [5]) came out at 280 nM; against Human ABL1 (T315I) it was 31.7 nM. In assay [1] (setting [5]), `Cc1ccc(C(=O)Nc2ccc(CN3CCN(C)CC3)c(C(F)(F)F)c2)cc1C#Cc1ccc2c(c1)nc(N)n2C` [Example 22, 3-((2-amino-1-methyl-1H-benzo[d]imidazol-5-yl)ethynyl)-4-methyl-N-[(4-(4-methylpiperazin-1-yl)methyl)-3-trifluoromethylphenyl]benzamide] displayed an IC50 of 8100 nM.

Values taken from patent US20150152088A1, “ALKYNYL HETEROAROMATIC COMPOUND AND USE THEREOF” (Nanjing Sanhome Pharmaceutical Co., Ltd., priority 2012, published 2015).
